{"source": "paper PMC12040169", "about": "(PLOS Biology, 2025)", "data": [{"assay": "in vitro", "conditions": "human, hela cells, % viability", "units": {"viability at 28.5 h, 10 µM": "%"}, "values": [{"smiles": "CCN(CC)CCn1c(=N)n(Cc2ccc(C(C)(C)C)cc2)c2ccccc21", "note": "[CBK268803B]", "viability at 28.5 h, 10 µM": 82.9}, {"smiles": "CCC1CCCCN1C(=O)c1ccc(C(F)(F)F)cc1", "note": "(stereo not drawn) [CBK081165]", "viability at 28.5 h, 10 µM": 107}, {"smiles": "CC(=O)C1=C(O)C(=O)N(CC(=O)O)C1c1ccc(Br)cc1", "note": "(stereo not drawn) [CBK286712]", "viability at 28.5 h, 10 µM": 89.9}, {"smiles": "Cc1nn(-c2nc3ccccc3s2)c(O)c1C", "note": "[CBK270254]", "viability at 28.5 h, 10 µM": 87.8}, {"smiles": "CCC(C)(C)Nc1cccnc1N(C)C1CCN(C(=O)c2cc3cc(N)ccc3[nH]2)CC1", "note": "[CBK016674]", "viability at 28.5 h, 10 µM": 80.3}, {"smiles": "CC1(C)C(=O)OC(C(=O)c2ccc(Br)cc2)C(C)(C)C1=O", "note": "(stereo not drawn) [CBK264600]", "viability at 28.5 h, 10 µM": 90.3}, {"smiles": "O=c1[nH]c2ccccc2n1C1CCN(CCOC(c2ccc(F)cc2)c2ccc(F)cc2)CC1", "note": "[CBK099807G]", "viability at 28.5 h, 10 µM": 101}, {"smiles": "CCN(CC)c1c(C)nc2ccc(C(=O)NCCN3CCNC3=O)cn12", "note": "[CBK145977]", "viability at 28.5 h, 10 µM": 97.8}, {"smiles": "COc1ccccc1C(=O)Nc1sc2c(c1C(=O)NCc1ccco1)CCCC2", "note": "[CBK265105]", "viability at 28.5 h, 10 µM": 100}, {"smiles": "CC(C)C(=O)N1CC2(CCN(CCc3cccc4ccccc34)CC2)c2ccccc21", "note": "[CBK136978]", "viability at 28.5 h, 10 µM": 101}, {"smiles": "Cc1cc(CN(C)Cc2cnn(-c3ccc(Cl)cc3)c2)n[nH]1", "note": "[CBK281912]", "viability at 28.5 h, 10 µM": 99.3}, {"smiles": "CCOC(=O)c1c(CN(C)C)n(-c2ccccc2)c2cc(Br)c(OC)cc12", "note": "[CBK115360]", "viability at 28.5 h, 10 µM": 117}, {"smiles": "O=C(C1CC1)N1CC2CN(Cc3ccccc3)CC2C12CCOCC2", "note": "(stereo not drawn) [CBK283055]", "viability at 28.5 h, 10 µM": 103}, {"smiles": "CS(=O)(=O)N(CC(=O)Nc1ccc(C(F)(F)F)cc1)Cc1ccc(Cl)cc1", "note": "[CBK268915]", "viability at 28.5 h, 10 µM": 99.7}, {"smiles": "O=C(NCc1ccccc1)c1cnsn1", "note": "[CBK267302]", "viability at 28.5 h, 10 µM": 90.8}, {"smiles": "CCn1nc(C(=O)Nc2ccccc2-c2ccc(OC)cc2)c2ccccc2c1=O", "note": "[CBK285864]", "viability at 28.5 h, 10 µM": 94.1}, {"smiles": "CC1CC(C)CN(C(=O)Cn2ncc3cccn3c2=O)C1", "note": "(stereo not drawn) [CBK283805]", "viability at 28.5 h, 10 µM": 81.2}, {"smiles": "Cc1ccc(C(C)(C)CC(C)NC2C3CC4CC(C3)CC2C4)o1", "note": "(stereo not drawn) [CBK262871]", "viability at 28.5 h, 10 µM": 93.9}, {"smiles": "COc1ccc2[nH]cc(CC3CCNCC3)c2c1", "note": "[CBK012779]", "viability at 28.5 h, 10 µM": 104}, {"smiles": "O=C1COc2ccccc2C/C=C/CC2(CCN(CC3CCOCC3)CC2)CN1", "note": "[CBK292128]", "viability at 28.5 h, 10 µM": 104}, {"smiles": "COCC1(C)NC(=O)N(Cc2nn(-c3ccccc3)c3c2CCC3)C1=O", "note": "(stereo not drawn) [CBK306483]", "viability at 28.5 h, 10 µM": 88.8}, {"smiles": "Cc1ccc(NC(=O)CSc2nnc(C(O)c3ccccc3)n2-c2ccccc2)c(C)c1", "note": "(stereo not drawn) [CBK266072]", "viability at 28.5 h, 10 µM": 106}, {"smiles": "Cc1ccc(CS(=O)(=O)N(CC(C)C)C2CC2)c(F)c1", "note": "[CBK306460]", "viability at 28.5 h, 10 µM": 82.9}, {"smiles": "Clc1ccc(CN2CCC(Oc3cncc(OCCN4CCOCC4)n3)C2)cc1Cl", "note": "(stereo not drawn) [CBK084477]", "viability at 28.5 h, 10 µM": 91.4}, {"smiles": "O=C(O)c1cccc2c1C(=O)N(Cc1ccncc1)C2", "note": "[CBK291146]", "viability at 28.5 h, 10 µM": 80.6}, {"smiles": "Nc1nnc(SCc2ccc(Br)cc2)s1", "note": "[CBK026356]", "viability at 28.5 h, 10 µM": 109}, {"smiles": "Cc1ccc(S(=O)(=O)c2ccc(C)c(S(N)(=O)=O)c2)cc1S(N)(=O)=O", "note": "[CBK261664]", "viability at 28.5 h, 10 µM": 83.6}, {"smiles": "COCCCNC(=O)CN1CCCCC1Cn1nc(C)cc1C", "note": "(stereo not drawn) [CBK304009]", "viability at 28.5 h, 10 µM": 104}, {"smiles": "C#CCNC(=O)N(C)C1CCN(c2ncnc3ccccc23)CC1", "note": "[CBK306109]", "viability at 28.5 h, 10 µM": 97.6}, {"smiles": "CCn1c(CN2CCOCC2)nnc1SCC(=O)Nc1cc(C)cc(C)c1", "note": "[CBK270258]", "viability at 28.5 h, 10 µM": 95.9}, {"smiles": "COc1cccc(Oc2nccnc2-c2ccc3c(c2)OCO3)c1", "note": "[CBK106704]", "viability at 28.5 h, 10 µM": 94.9}, {"smiles": "CN1CCN(c2nc(-c3ccco3)cnc2N)CC1", "note": "[CBK063449]", "viability at 28.5 h, 10 µM": 109}, {"smiles": "C=CCn1c2cc(C)sc2c2cnn(CC(=O)OC)c(=O)c21", "note": "[CBK284166]", "viability at 28.5 h, 10 µM": 89.3}, {"smiles": "Cn1c(COc2ccccc2)nnc1SCC(=O)c1cccc([N+](=O)[O-])c1", "note": "[CBK268397]", "viability at 28.5 h, 10 µM": 101}, {"smiles": "CC1CCC(N(Cc2nnc(C(C)C)o2)CC2CCCO2)CC1", "note": "(stereo not drawn) [CBK305169]", "viability at 28.5 h, 10 µM": 89.7}, {"smiles": "CSc1ccc(-c2cnc(N)c3ncccc23)cc1", "note": "[CBK067584]", "viability at 28.5 h, 10 µM": 68.4}, {"smiles": "O=C(NCc1c(O)c(Cl)cc(Cl)c1Cl)c1ccccc1", "note": "[CBK260920]", "viability at 28.5 h, 10 µM": 94.2}, {"smiles": "CCOC(=O)N1CCC(NC(=O)N(CCc2ccccc2)Cc2ccccc2)CC1", "note": "[CBK155359]", "viability at 28.5 h, 10 µM": 107}, {"smiles": "Cn1ncc2c(=O)n(Cc3nnsc3Cl)cnc21", "note": "[CBK237374]", "viability at 28.5 h, 10 µM": 102}, {"smiles": "CN1CCN(C2Cc3ccccc3Sc3c(O)cccc32)CC1", "note": "(stereo not drawn) [CBK026200G]", "viability at 28.5 h, 10 µM": 98}, {"smiles": "COc1ccc2oc(=O)c(C(=O)Nc3ccc(C(=O)O)cc3)cc2c1", "note": "[CBK262242]", "viability at 28.5 h, 10 µM": 98.4}, {"smiles": "CCc1n[nH]c(SCc2ccc(Br)cc2)n1", "note": "[CBK265221]", "viability at 28.5 h, 10 µM": 90.9}, {"smiles": "CN(Cc1ccccc1)c1nc2ccccn2c(=O)c1/C=C1/SC(=S)N(CCc2ccccc2)C1=O", "note": "[CBK263839]", "viability at 28.5 h, 10 µM": 112}, {"smiles": "O[C@H]1[C@H](NCc2ccco2)[C@H]2CO[C@H](O2)[C@@H]1N1CCC(Cc2ccccc2)CC1", "note": "[CBK288815]", "viability at 28.5 h, 10 µM": 99.1}, {"smiles": "O=C(Oc1cccc2cccnc12)c1cc(S(=O)(=O)N2CCOCC2)ccc1Cl", "note": "[CBK263210]", "viability at 28.5 h, 10 µM": 91.3}]}]}
